The target in test [1] is T1, Ribosomal protein S6 kinase delta-1 (Homo sapiens) (UniProt Q96S38).
T1 sequence (whole entry): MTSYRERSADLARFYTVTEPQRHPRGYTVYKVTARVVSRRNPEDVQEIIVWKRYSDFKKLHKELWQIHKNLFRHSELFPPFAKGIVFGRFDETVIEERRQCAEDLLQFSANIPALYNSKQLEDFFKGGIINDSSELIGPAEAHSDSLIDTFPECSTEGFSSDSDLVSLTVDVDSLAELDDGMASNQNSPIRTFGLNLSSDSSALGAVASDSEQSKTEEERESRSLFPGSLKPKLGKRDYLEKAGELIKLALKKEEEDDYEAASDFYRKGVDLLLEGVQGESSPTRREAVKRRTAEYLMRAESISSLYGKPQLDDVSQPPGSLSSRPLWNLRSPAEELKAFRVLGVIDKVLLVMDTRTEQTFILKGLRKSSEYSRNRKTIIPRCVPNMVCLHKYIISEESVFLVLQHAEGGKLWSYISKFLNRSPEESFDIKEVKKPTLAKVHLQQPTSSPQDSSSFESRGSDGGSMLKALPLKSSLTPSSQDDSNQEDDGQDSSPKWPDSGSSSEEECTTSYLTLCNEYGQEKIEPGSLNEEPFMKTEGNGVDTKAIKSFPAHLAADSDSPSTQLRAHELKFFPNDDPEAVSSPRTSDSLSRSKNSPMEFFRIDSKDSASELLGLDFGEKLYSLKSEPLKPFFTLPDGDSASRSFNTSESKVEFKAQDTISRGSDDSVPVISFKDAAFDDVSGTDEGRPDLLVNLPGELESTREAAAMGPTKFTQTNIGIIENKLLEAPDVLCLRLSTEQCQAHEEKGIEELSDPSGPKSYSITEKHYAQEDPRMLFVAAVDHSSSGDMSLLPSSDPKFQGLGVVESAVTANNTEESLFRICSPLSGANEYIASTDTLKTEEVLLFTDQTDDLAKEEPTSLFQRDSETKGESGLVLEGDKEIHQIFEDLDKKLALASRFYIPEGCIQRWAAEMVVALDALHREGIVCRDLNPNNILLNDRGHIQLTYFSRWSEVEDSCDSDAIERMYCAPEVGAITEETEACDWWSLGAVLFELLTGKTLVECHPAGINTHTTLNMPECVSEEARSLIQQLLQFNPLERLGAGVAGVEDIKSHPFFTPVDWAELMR
Briefly: Selectivity interaction (Kinase panel (KiNativ target engagement assay in Jurkat cells)) EUB0001635a RPS6KC1. The format is cell-based. As to conditions: Selectivity number of off-targets 0.0, Selectivity number of targets 233.0, Source Knowledge https://www.sciencedirect.com/science/article/pii/S2451945619300674?via%3Dihub, at 1 µM.

The target of test [2] is Histone-lysine N-methyltransferase KMT5C (Homo sapiens) (UniProt Q86Y97). Particulars: at 10 µM.
Sequence of Histone-lysine N-methyltransferase KMT5C (Homo sapiens) (Q86Y97 whole entry, looked up): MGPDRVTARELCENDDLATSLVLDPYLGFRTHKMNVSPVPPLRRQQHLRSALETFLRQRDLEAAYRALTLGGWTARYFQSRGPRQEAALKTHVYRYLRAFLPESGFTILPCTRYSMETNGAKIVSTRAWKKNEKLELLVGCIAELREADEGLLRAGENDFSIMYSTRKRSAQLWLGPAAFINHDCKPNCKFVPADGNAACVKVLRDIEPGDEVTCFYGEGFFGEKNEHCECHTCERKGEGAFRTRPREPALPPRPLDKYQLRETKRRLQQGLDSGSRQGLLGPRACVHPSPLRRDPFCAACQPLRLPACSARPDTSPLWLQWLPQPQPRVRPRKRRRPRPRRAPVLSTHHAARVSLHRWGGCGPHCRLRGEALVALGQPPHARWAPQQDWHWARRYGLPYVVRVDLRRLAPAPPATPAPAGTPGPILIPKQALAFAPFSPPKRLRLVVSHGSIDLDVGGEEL
Test [3] has as its target Serine/threonine-protein kinase WNK3 (Homo sapiens) (UniProt Q9BYP7). Briefly: Selectivity interaction (ActivX KiNativ screen (kinase selectivity in THP-1 cell lysates)) EUB0000639a WNK3. The class given is subcellular. As to conditions: lysate.
The target in test [4] is T2, Protein kinase C iota type (Homo sapiens) (UniProt P41743).
T2 sequence (whole entry): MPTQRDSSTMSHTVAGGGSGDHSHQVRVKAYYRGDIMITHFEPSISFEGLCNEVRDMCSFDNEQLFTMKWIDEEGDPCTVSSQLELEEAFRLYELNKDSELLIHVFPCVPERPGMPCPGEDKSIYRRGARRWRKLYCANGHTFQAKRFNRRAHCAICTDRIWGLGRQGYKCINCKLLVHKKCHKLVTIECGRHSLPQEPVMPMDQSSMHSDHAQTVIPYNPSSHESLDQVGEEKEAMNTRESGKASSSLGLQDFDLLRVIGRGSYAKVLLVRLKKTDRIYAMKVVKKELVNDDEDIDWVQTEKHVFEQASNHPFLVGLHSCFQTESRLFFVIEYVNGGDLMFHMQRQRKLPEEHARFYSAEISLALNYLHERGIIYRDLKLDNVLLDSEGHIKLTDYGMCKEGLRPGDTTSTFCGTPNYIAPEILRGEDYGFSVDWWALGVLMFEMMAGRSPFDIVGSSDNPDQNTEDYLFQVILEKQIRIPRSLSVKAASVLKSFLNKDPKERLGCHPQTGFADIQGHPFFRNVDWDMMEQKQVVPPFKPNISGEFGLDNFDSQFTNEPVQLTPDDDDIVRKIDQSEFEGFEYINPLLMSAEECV
In words: Selectivity interaction (KinomeScan (DiscoverX)) EUB0000695a PRKCI. Particulars: at 100 nM.

The target of test [5] is T3, Peripheral plasma membrane protein CASK (Homo sapiens) (UniProt O14936).
T3 sequence (whole entry): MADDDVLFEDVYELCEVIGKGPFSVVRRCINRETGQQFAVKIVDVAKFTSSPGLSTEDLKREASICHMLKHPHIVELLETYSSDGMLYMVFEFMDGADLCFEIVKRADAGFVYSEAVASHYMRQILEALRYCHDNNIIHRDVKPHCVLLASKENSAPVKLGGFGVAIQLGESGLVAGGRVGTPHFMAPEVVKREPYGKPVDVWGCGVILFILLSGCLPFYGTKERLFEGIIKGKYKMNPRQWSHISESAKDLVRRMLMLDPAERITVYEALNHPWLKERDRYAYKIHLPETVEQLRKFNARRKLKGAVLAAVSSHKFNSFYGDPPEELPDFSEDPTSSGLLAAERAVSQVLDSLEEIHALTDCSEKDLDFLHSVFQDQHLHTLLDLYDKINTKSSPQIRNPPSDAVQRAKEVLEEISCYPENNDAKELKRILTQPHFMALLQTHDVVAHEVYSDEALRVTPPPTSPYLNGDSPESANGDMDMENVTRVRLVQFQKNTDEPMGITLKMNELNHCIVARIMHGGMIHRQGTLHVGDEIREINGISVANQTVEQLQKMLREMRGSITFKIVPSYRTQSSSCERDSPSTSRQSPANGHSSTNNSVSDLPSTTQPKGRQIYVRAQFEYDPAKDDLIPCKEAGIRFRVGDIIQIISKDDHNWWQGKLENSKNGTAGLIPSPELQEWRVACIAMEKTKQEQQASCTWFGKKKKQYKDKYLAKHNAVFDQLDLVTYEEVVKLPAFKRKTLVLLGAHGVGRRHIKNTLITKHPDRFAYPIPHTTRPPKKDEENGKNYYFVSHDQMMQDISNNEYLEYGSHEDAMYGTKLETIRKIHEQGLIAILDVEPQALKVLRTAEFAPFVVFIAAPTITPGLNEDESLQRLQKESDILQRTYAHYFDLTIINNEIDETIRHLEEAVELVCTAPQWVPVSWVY
Briefly: Selectivity interaction (Kinase panel (DSF assay)) EUB0001559a CASK. On the technique in general: In DSF a fluorescence change marks the thermal transition of the protein.

The structures appear in SMILES notation. A value given as a limit tells only on which side of the number the result lay.

Sequence of Serine/threonine-protein kinase WNK3 (Homo sapiens) (Q9BYP7 whole entry): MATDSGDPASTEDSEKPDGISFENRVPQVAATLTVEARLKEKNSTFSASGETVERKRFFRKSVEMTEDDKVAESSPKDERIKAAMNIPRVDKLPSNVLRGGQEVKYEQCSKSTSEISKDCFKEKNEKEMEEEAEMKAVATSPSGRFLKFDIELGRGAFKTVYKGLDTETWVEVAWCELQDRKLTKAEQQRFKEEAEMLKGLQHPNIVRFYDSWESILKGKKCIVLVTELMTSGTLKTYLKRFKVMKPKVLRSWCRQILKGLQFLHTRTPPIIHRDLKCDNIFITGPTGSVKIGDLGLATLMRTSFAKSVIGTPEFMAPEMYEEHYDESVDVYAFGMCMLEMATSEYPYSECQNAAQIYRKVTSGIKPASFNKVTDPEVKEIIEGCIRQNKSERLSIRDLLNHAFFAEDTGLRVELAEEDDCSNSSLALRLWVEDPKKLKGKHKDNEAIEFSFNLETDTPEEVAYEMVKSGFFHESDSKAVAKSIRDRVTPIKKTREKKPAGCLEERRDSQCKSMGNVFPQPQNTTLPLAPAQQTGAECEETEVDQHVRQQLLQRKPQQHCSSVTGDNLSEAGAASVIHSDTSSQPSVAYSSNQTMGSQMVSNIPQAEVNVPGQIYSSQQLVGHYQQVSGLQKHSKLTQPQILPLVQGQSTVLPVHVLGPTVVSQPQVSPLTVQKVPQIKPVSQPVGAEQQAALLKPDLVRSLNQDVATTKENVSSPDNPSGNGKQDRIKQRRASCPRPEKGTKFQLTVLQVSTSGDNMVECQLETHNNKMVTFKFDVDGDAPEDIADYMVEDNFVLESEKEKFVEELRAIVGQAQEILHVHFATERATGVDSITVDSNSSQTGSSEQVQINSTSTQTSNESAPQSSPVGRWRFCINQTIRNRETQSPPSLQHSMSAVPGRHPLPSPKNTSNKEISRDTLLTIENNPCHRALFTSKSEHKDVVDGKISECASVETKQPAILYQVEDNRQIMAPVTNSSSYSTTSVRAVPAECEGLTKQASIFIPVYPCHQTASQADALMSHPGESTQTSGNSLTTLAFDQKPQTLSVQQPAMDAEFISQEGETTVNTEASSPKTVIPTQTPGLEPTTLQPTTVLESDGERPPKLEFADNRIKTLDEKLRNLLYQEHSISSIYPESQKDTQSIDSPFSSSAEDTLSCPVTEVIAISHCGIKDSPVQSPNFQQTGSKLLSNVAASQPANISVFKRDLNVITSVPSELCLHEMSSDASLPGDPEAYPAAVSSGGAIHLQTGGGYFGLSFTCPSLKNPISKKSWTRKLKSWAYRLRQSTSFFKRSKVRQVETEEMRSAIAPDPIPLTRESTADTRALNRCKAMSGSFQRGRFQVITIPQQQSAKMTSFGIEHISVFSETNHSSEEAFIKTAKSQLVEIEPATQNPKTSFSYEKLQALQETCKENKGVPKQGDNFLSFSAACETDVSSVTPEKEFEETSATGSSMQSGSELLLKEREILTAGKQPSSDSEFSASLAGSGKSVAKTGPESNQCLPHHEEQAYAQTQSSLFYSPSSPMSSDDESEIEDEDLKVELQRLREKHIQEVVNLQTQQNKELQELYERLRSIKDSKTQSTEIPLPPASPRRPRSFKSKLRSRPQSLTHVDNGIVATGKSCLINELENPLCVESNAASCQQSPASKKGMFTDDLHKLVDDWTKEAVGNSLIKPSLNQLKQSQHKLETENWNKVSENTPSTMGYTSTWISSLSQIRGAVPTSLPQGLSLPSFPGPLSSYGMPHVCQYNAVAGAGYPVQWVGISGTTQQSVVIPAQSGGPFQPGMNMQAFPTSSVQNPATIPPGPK

For the compound `C=CC(=O)Nc1ccc(C(=O)Nc2[nH]nc3c2CN(C(=O)N[C@H](CN(C)C)c2ccccc2)C3(C)C)cc1`, the % of engagement in test [1] is 0.7%.

Turning to `CNCCN1CCC(c2cc(CN(C)C(=O)c3cccc(Oc4ccccc4)c3)ccn2)CC1`, in test [2], the % activity is more than 90%.

Regarding `CC[C@@H]1[C@H](F)C(=O)N[C@@H]1COc1nccc2cc(C(N)=O)c(OC)cc12` [ZIMLOVISERTIB], the % of inhibition in test [3] (at 0.01 µM) is 3.3%; in test [3] (at 0.04 µM), -7.4%; in test [3] (at 0.2 µM), -12%; in test [3] (at 1 µM) it was -7.7%; in test [3] (at 5 µM), -14.5%.

For `Cc1cc(F)c(C(=O)Nc2cccc(-c3nncn3C(C)C)n2)cc1-n1cnc(C2CC2)c1`, the % of control in test [4] worked out at 95%.

For the compound `CN(C(=O)c1cnn2cccnc12)c1cc2c(cc1N1CCOCC1)C(=O)N(C[C@@H](F)C(C)(C)O)C2`, the dTM in test [5] is 0 K.

For the origin of these results see ChEMBL document CHEMBL5465560, “Selectivity Literature for EUbOPEN Chemogenomic Library” (2024).
